From US20210085640A1, “ACYLATED CATECHIN POLYPHENOLS AND METHODS OF THEIR USE FOR THE TREATMENT OF CANCER” (Flagship Pioneering Innovations V, Inc., priority 2018, published 2021)

What was measured:
Type in all cases: cell-based
[1] = tested on: HCT 116 colorectal cancer cells; assay: Cancer cell survival (CellTiter-Glo), HCT 116; conditions: Homo sapiens, HCT 116 cells, 72 h
Outline: (§1)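 Cells seeded at 4×10^3 cells/well, incubated overnight, then treated in triplicate at nine concentrations for 72 h at 37 C, 5% CO2. Viability by CellTiter-Glo luminescence, survival % normalized to untreated and medium controls; IC50 derived.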

[2] = tested on: A549 lung cancer cells; assay: Cancer cell survival (CellTiter-Glo), A549; conditions: Homo sapiens, 72 h
Outline: as §1

[3] = tested on: T24 bladder cancer cells; assay: Cancer cell survival (CellTiter-Glo), T24; conditions: Homo sapiens
Outline: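 T24 cells seeded at 4×10^3 cells/well overnight, then exposed 72 h at 37 C, 5% CO2 to nine concentrations in triplicate. Survival measured by CellTiter-Glo luminescence relative to untreated and medium controls; IC50 derived.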

[4] = tested on: A-431 skin cancer cells; assay: Cancer cell survival (CellTiter-Glo), A-431; conditions: Homo sapiens, A-431 cells, 72 h
Outline: as §1

[5] = tested on: AGS stomach cancer cells; assay: Cancer cell survival (CellTiter-Glo), AGS
Outline: as §1

[6] = tested on: PC-3 prostate cancer cells; assay: Cancer cell survival (CellTiter-Glo), PC-3; conditions: Homo sapiens, PC-3 cells, 72 h
Outline: as §1

[7] = tested on: Daudi lymphoma cancer cells; assay: Cancer cell survival (CellTiter-Glo), Daudi; conditions: Homo sapiens, 72 h
Outline: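 Daudi cells (4×10^3/well) were exposed for 72 h at 37 °C to nine concentrations of compound, added as 10× solutions spanning 1 μM–10 mM (fatty acids) or 100 nM–1 mM (others). CellTiter-Glo luminescence gave % survival versus untreated, medium-blank corrected; IC50 derived.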

[8] = tested on: MCF7 breast cancer cells; assay: Cancer cell survival (CellTiter-Glo), MCF7; conditions: Homo sapiens, 72 h
Outline: as §1

[9] = 317 μM, read-out: Cell survival at given concentration
[10] = 1 mM, read-out: Cell survival at given concentration
[11] = 3 mM, read-out: Cell survival at given concentration
[12] = 10 mM, read-out: Cell survival at given concentration

Compound: CCCC(=O)O [butyrate]
- viability at 1 µM ([1]; 1 μM, Table 6.2, read-out: Cell survival at given concentration): 98%
- viability at 3 µM ([1]; 3 μM, Table 6.2, read-out: Cell survival at given concentration): 99%
- viability at 10 µM ([1]; 10 μM, Table 6.2, read-out: Cell survival at given concentration): 102%
- viability at 32 µM ([1]; 32 μM, Table 6.2, read-out: Cell survival at given concentration): 101%
- viability at 100 µM ([1]; 100 μM, Table 6.2, read-out: Cell survival at given concentration): 97%
- viability at 317 µM [1, 9]: 92%
- viability at 1000 µM [1, 10]: 66%
- viability at 3000 µM [1, 11]: 18%
- viability at 10000 µM [1, 12]: 1%
- IC50 ([1]; Table 6.2): 1.44 mM
- viability at 1 µM ([2]; 1 μM, Table 7.2, read-out: Cell survival at given concentration): 95%
- viability at 3 µM ([2]; 3 μM, Table 7.2, read-out: Cell survival at given concentration): 96%
- viability at 10 µM ([2]; 10 μM, Table 7.2, read-out: Cell survival at given concentration): 99%
- viability at 32 µM ([2]; 32 μM, Table 7.2, read-out: Cell survival at given concentration): 100%
- viability at 100 µM ([2]; 100 μM, Table 7.2, read-out: Cell survival at given concentration): 102%
- viability at 317 µM [2, 9]: 101%
- viability at 1000 µM [2, 10]: 90%
- viability at 3000 µM [2, 11]: 67%
- viability at 10000 µM [2, 12]: 27%
- IC50 ([2]; Table 7.2): 5.07 mM
- viability at 1 µM ([3]; T-24, 1 μM, 72 h, Table 3.2, read-out: Cell survival at given concentration): 98%
- viability at 3 µM ([3]; T-24, 3 μM, 72 h, Table 3.2, read-out: Cell survival at given concentration): 100%
- viability at 10 µM ([3]; T-24, 10 μM, 72 h, Table 3.2, read-out: Cell survival at given concentration): 105%
- viability at 32 µM ([3]; T-24, 32 μM, 72 h, Table 3.2, read-out: Cell survival at given concentration): 99%
- viability at 100 µM ([3]; T-24, 100 μM, 72 h, Table 3.2, read-out: Cell survival at given concentration): 97%
- viability at 317 µM ([3]; T-24, 317 μM, 72 h, read-out: Cell survival at given concentration): 90%
- viability at 1000 µM ([3]; T-24, 1 mM, 72 h, read-out: Cell survival at given concentration): 84%
- viability at 3000 µM ([3]; T-24, 3 mM, 72 h, read-out: Cell survival at given concentration): 60%
- viability at 10000 µM ([3]; T-24, 10 mM, 72 h, read-out: Cell survival at given concentration): 27%
- IC50 ([3]; T-24, 72 h, Table 3.2, read-out: IC50): 4.72 mM
- viability at 1 µM ([4]; 1 μM, Table 9.2, read-out: Cell survival at given concentration): 103%
- viability at 3 µM ([4]; 3 μM, Table 9.2, read-out: Cell survival at given concentration): 102%
- viability at 10 µM ([4]; 10 μM, Table 9.2, read-out: Cell survival at given concentration): 102%
- viability at 32 µM ([4]; 32 μM, Table 9.2, read-out: Cell survival at given concentration): 103%
- viability at 100 µM ([4]; 100 μM, Table 9.2, read-out: Cell survival at given concentration): 99%
- viability at 317 µM [4, 9]: 96%
- viability at 1000 µM [4, 10]: 85%
- viability at 3000 µM [4, 11]: 67%
- viability at 10000 µM [4, 12]: 37%
- IC50 ([4]; Table 9.2): 6.32 mM
- viability at 1 µM ([5]; 72 h, 1 μM, Table 10.2, read-out: Cell survival at given concentration): 100%
- viability at 3 µM ([5]; 72 h, 3 μM, Table 10.2, read-out: Cell survival at given concentration): 100%
- viability at 10 µM ([5]; 72 h, 10 μM, Table 10.2, read-out: Cell survival at given concentration): 102%
- viability at 32 µM ([5]; 72 h, 32 μM, Table 10.2, read-out: Cell survival at given concentration): 101%
- viability at 100 µM ([5]; 72 h, 100 μM, Table 10.2, read-out: Cell survival at given concentration): 104%
- viability at 317 µM ([5]; 72 h, 317 μM, read-out: Cell survival at given concentration): 105%
- viability at 1000 µM ([5]; 72 h, 1 mM, read-out: Cell survival at given concentration): 91%
- viability at 3000 µM ([5]; 72 h, 3 mM, read-out: Cell survival at given concentration): 65%
- viability at 10000 µM ([5]; 72 h, 10 mM, read-out: Cell survival at given concentration): 11%
- IC50 ([5]; Table 10.2): 4.46 mM
- viability at 1 µM ([6]; 1 μM, Table 8.2, read-out: Cell survival at given concentration): 100%
- viability at 3 µM ([6]; 3 μM, Table 8.2, read-out: Cell survival at given concentration): 99%
- viability at 10 µM ([6]; 10 μM, Table 8.2, read-out: Cell survival at given concentration): 100%
- viability at 32 µM ([6]; 32 μM, Table 8.2, read-out: Cell survival at given concentration): 100%
- viability at 100 µM ([6]; 100 μM, Table 8.2, read-out: Cell survival at given concentration): 98%
- viability at 317 µM [6, 9]: 93%
- viability at 1000 µM [6, 10]: 82%
- viability at 3000 µM [6, 11]: 66%
- viability at 10000 µM [6, 12]: 40%
- IC50 ([6]; Table 8.2): 6.44 mM
- viability at 1 µM ([7]; 1 μM, Table 4.2, read-out: Cell survival at given concentration): 101%
- viability at 3 µM ([7]; 3 μM, Table 4.2, read-out: Cell survival at given concentration): 99%
- viability at 10 µM ([7]; 10 μM, Table 4.2, read-out: Cell survival at given concentration): 100%
- viability at 32 µM ([7]; 32 μM, Table 4.2, read-out: Cell survival at given concentration): 100%
- viability at 100 µM ([7]; 100 μM, Table 4.2, read-out: Cell survival at given concentration): 99%
- viability at 317 µM [7, 9]: 87%
- viability at 1000 µM [7, 10]: 46%
- viability at 3000 µM [7, 11]: 19%
- viability at 10000 µM [7, 12]: 13%
- IC50 ([7]; Table 4.2): 912 µM
- viability at 1 µM ([8]; 1 μM, Table 5.2, read-out: Cell survival at given concentration): 101%
- viability at 3 µM ([8]; 3 μM, Table 5.2, read-out: Cell survival at given concentration): 103%
- viability at 10 µM ([8]; 10 μM, Table 5.2, read-out: Cell survival at given concentration): 102%
- viability at 32 µM ([8]; 32 μM, Table 5.2, read-out: Cell survival at given concentration): 100%
- viability at 100 µM ([8]; 100 μM, Table 5.2, read-out: Cell survival at given concentration): 104%
- viability at 317 µM [8, 9]: 98%
- viability at 1000 µM [8, 10]: 82%
- viability at 3000 µM [8, 11]: 54%
- viability at 10000 µM [8, 12]: 24%
- IC50 ([8]; Table 5.2): 3.59 mM
